System: PMA-treated HL-60 cells
Assay: Lipoxin metabolism / bio-half-life assay with phorbol ester-treated HL-60 cells
Assay type: in vitro ADME, human
Description: HL-60 cells were purchased from American Type Culture Collection (Rockville, Md.), and other cell culture reagents were from GIBCO (Grand Island, N.Y.). Versene (EDTA) was from Whittaker Bioproducts (Walkersville, Md.). Synthetic 11,12-acetylenic LXA4 methyl ester and LXs were from Cascade Biochemical (Reading, U.K.). 15(S)-15-m-PGE1, PGE1, and 5-HETE were from Cayman Chemical Co. (Ann Arbor, Mich.). [11,12-^3H]LXA4 was prepared from 11,12-acetylenic LXA4 using Lindlar catalyst as a custom tritiation (NET-259, lot 0 2793-275, New England Nuclear, Boston, Mass.). Tritiated products were isolated using RP-HPLC (Fiore et al. (1992) J. Biol. Chem. 267:16168; Serhan, C. N. (1990) Meth. Enzymol. 187:167). Methoxyamine and NAD were from Sigma Chemical Company (St. Louis, Mo.). Manganese dioxide and Adams reagent were from Aldrich Chemical Co. (Milwaukee, Wis.).
Human PMN were obtained from healthy volunteers by gradient centrifugation of heparinized fresh venous blood (Böyum, A. ([…]) Scand. J. Clin. Lab. Invest. 21:77). HL-60 cells were seeded in RPMI supplemented with penicillin (100 U/ml), streptomycin (100 μ/ml), fetal bovine serum (10%) (Hyclone, Logan, Utah) and incubated (37° C. with 5% CO2 atmosphere) in plastic 250 ml flasks. Individual flasks containing […] HL-60 cells/ml were incubated in the presence or absence of phorbol 12-myristate 13-acetate (PMA) (10 or 16 nM, 24-27 h) and adherence was monitored for induction of macrophage-like phenotype as in Collins, S. J. (1987) Blood 70:1233. […]
Incubations with eicosanoids were stopped with cold methanol containing either PGB2 or 5-HETE as internal standards (5-HETE was used when 15-oxo-ETE was quantified). […] Formation of 15-oxo-ETE by 100,000 g supernatants (cf. Agins, A. P. et al. (1987) Agents Actions 21:397; Xun, C-Q. et al.(1991) Biochem. J. 279:553; and Sok, D-E. et al. (1988) Biochem. Biophys. Res. Commun. 156:524) was quantified after RP-HPLC using an ODS column (4.6 mm×25 cm) eluted with methanol/H2O/acetic acid (70:30:0.01, v/v/v) monitored at 280 nm with a flow rate of 1 ml/min. […] On-line spectra were recorded using a diode array detector (Hewlett-Packard 1040M series II) equipped with HPLC^3D ChemStation software (DOS series). […]
The “bio-half-life” of compounds 1-8 was assessed using phorbol ester-treated human promyelocytic leukemia (HL-60) cells as described in Example 2. […]

With CCCCC[C@H](O)/C=C/C=C\C=C\C=C\[C@@H](O)[C@@H](O)CCCC(=O)O [LXA4, (5S, 6R, 15S)-trihydroxy-7E, 9E, 11Z, 13E-eicosatetraenoic acid] the LXA4 metabolized (PMA-treated HL-60 cells, within the first 60 s of exposure) was > 70% and the “LXA4 converted” value (within five minutes of addition to the cell incubation) was “more than 95%”.
